PubChem BioAssay AID179 (DTP/NCI, 2004)
Values joined by “and” are separate entries in the source; they are usually repeats but may differ in a detail not shown here. Equal entries are not always repeated. Active and inactive are the calls of the source.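 Rule for the calls: active = compounds giving half or more protection of infected cells from virus-caused growth loss, again on retest; inactive = the rest.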

Tested on: CEM cells HIV-1 protection, formazan growth assay
Assay: NCI AIDS Antiviral Assay
Details: for IC50: measured here: growth of uninfected CEM cells
How it was run: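 Protection of CEM cells against HIV-1 was scored from cell growth (soluble formazan) across five concentrations, with parallel uninfected cells. Lack of protection may reflect toxicity.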

SMILES: O=C1c2cccnc2S(=O)(=O)N1c1ccc(Br)cc1
- EC50: > 200 µM
- IC50: 74.1 µM

SMILES: CC(NC(=O)OCc1ccccc1)C(=O)NC(C(=O)O)C(C)C (stereo not given)
- EC50: > 776 µM
- IC50: > 776 µM

SMILES: Cc1ccc(NC(=O)CC(=O)n2nc(-c3ccccc3)c(N=Nc3ccccc3[N+](=O)[O-])c2-c2ccccc2)cc1
- EC50: > 25.1 µM
- IC50: > 25.1 µM

SMILES: O=C1C2(Cl)C3(Cl)C4(OCCO4)C4(Cl)C2(Cl)C2(Cl)C1(Cl)C3(Cl)C42Cl (stereo not given)
- EC50: > 200 µM
- IC50: 28.8 µM

SMILES: CC(NC(=O)Cc1ccccc1)NC(=O)C(C)C(=O)NCc1ccccc1 (stereo not given)
- outcome: inactive

SMILES: N#CCCN(CCC#N)c1ccc(C(Sc2ccccc2)C(NC(=O)c2cc([N+](=O)[O-])ccc2Cl)C(=O)Sc2ccccc2)cc1 (stereo not given)
- EC50: > 10.7 µM
- IC50: 3.55 µM

SMILES: OC1(c2ccccc2)OC(C#Cc2ccccc2)(c2ccccc2)c2ccccc21 (stereo not given)
- outcome: inactive

SMILES: O=C1c2ccccc2-c2oc(=O)c3ccccc3c21
- EC50: > 40.7 µM
- IC50: > 40.7 µM

SMILES: O=Nn1cc(-c2cc3ccccc3n2N=O)c2ccccc21
- EC50: > 200 µM
- IC50: 97.7 µM

SMILES: O=C(O)C1CC(c2ccc(F)cc2)=Nc2ccc(F)cc2S1 (stereo not given)
- EC50: > 200 µM
- IC50: > 200 µM

SMILES: CCn1ccc(=O)nc1
- EC50: > 200 µM
- IC50: > 200 µM

SMILES: CC1(C)SCC(COC(=O)c2ccccc2)S1 (stereo not given)
- EC50: > 200 µM
- IC50: > 200 µM

SMILES: C1CCc2nnnn2CC1
- EC50: > 200 µM and 120 µM
- IC50: > 200 µM and 724 µM

SMILES: Cc1cn(C2CC(O)C(CN(O)C(N)=O)O2)c(=O)[nH]c1=O (stereo not given)
- EC50: > 100 µM
- IC50: > 100 µM

SMILES: CC(C)(C)c1cc[n+](C[n+]2ccc(C(C)(C)C)cc2)cc1
- EC50: > 200 µM
- IC50: > 200 µM

SMILES: Cc1cccc2c3c(ccc12)C(=O)OC3=O
- outcome: inactive

SMILES: CC(=O)OC1C(COS(=O)(=O)O)OC(O[C@H]2CC[C@@]3(C)C(=CC[C@@H]4C3CC[C@@]3(C)C4CC[C@@H]3C(C)=O)C2)C(OC(C)=O)C1OC(C)=O (stereo not given in full)
- EC50: > 31.6 µM
- IC50: > 31.6 µM

SMILES: Cc1cc(=O)oc2cc(OCCCOc3ccc4c(C)cc(=O)oc4c3)ccc12
- EC50: > 3.72 µM
- IC50: > 3.72 µM

SMILES: CC12C(=C(C#N)C(=N)N1c1ccc(Cl)c(Cl)c1)C=C(O)CC2SCCS(=O)(=O)O (stereo not given)
- EC50: 33.1 µM
- IC50: 67.6 µM

SMILES: Cc1cc(Cl)ccc1NC(=O)/C(=N\NC(C)(C)C)C(C#N)c1nc(-c2ccc([N+](=O)[O-])cc2)cs1 (stereo not given)
- EC50: 2.63 µM
- IC50: 10.2 µM

SMILES: N#C/C(=C1\SC(=O)CN1c1ccccc1)c1nc2ccccc2o1
- EC50: > 200 µM
- IC50: > 200 µM

SMILES: C=C1C2CCC3(CCC4C5(C)CCCC4(CN(C(C)=O)C5)C3C2)C1O (stereo not given)
- outcome: inactive

SMILES: CN(C)/N=C(\CCN1CCCC1)CC(c1ccccc1)c1c(O)c2ccccc2oc1=O (stereo not given)
- EC50: > 39.8 µM
- IC50: > 39.8 µM

SMILES: O=C(C[P+](c1ccccc1)(c1ccccc1)c1ccccc1)C[P+](c1ccccc1)(c1ccccc1)c1ccccc1
- EC50: > 200 µM
- IC50: 0.759 µM

SMILES: CN(C)C(=S)Oc1ccc2ccc(=O)oc2c1
- EC50: > 200 µM
- IC50: > 200 µM

SMILES: Cc1ccc(C)c(N2C(=O)C(=O)C(c3nc4ccccc4s3)/C(=N/NC(=O)NN)C2=O)c1 (stereo not given)
- outcome: inactive

SMILES: Nc1ccc(S(=O)(=O)Nc2cnc3c(Cl)cccc3n2)cc1
- EC50: > 537 µM
- IC50: 6.46 µM

SMILES: COC(=O)c1c(C(=O)OC)c(C(c2ccccc2)c2ccccc2)n(-c2ccccc2)c1Cl
- EC50: > 200 µM
- IC50: 64.6 µM

SMILES: CN1CC=C(C#CC(C)(C)O)CC1
- EC50: > 200 µM
- IC50: > 200 µM

SMILES: CC(C)OP(=O)(OC(C)C)/C(C#N)=C/c1c[nH]c2ccccc12
- EC50: > 200 µM
- IC50: > 200 µM

SMILES: COc1cc([N+](=O)[O-])cc2c1NC(=O)C2(C)SC (stereo not given)
- EC50: > 200 µM
- IC50: 30.9 µM

SMILES: O=C1NC(=O)C(Cc2cccc(Cl)c2)C(=O)N1
- EC50: > 200 µM
- IC50: > 200 µM

SMILES: COc1c(C)c(C/C=C(\C)CC/C=C(\C)CC/C=C(\C)CCC=C(C)C)c(OC)c2ccccc12
- EC50: > 200 µM
- IC50: 107 µM

SMILES: O=C(NC1CCCCC1)NC12CC3CC(CC(F)(C3)C1)C2
- EC50: > 45.7 µM
- IC50: > 45.7 µM

SMILES: CC(C)CNC(=O)CCc1cccc2c1oc1c(CCN)cccc12
- EC50: > 200 µM
- IC50: 14.8 µM

SMILES: CC(=O)OCC1OC(OC(C)=O)C(Nc2ncc(-c3ccc(C)cc3)s2)C(OC(C)=O)C1OC(C)=O (stereo not given)
- EC50: > 200 µM
- IC50: 13.2 µM

SMILES: COC(CC1(/C=C/O[Si](C(C)C)(C(C)C)C(C)C)C(=O)N(COCC[Si](C)(C)C)c2ccccc21)OC (stereo not given)
- EC50: > 200 µM
- IC50: 36.3 µM

SMILES: CC(=O)/C=C/CCC(=O)/C=C/C(=O)OC(CCC(=O)/C=C/C(=O)O)CC(C)=O (stereo not given)
- EC50: > 200 µM
- IC50: 115 µM

SMILES: CC1=CC(C)(C)NC(=S)N1c1ccccc1O
- outcome: inactive

SMILES: Cn1c2ccccc2n2c3ncccc3c(=NCCCC(=O)O)c(C#N)c12
- EC50: > 200 µM
- IC50: > 200 µM

SMILES: CN(C)CC1CCc2ccccc2C1=O (stereo not given)
- outcome: inactive

SMILES: O=[N+]([O-])c1cnc(N(CCO)CCO)s1
- EC50: > 200 µM
- IC50: > 200 µM

SMILES: O=C(O)[C@H](NS(=O)(=O)c1ccc(F)cc1)c1ccccc1
- outcome: inactive

SMILES: COC(=O)C1(Cc2ccc3c(c2)CCC3)Cc2ccccc2C1=O (stereo not given)
- EC50: > 200 µM
- IC50: 10.7 µM
